Data published in patent US12558007B2 (priority 2016, dated 2026).

Molecular target: acetylcholinesterase enzyme (Homo sapiens, UniProt P22303)
Assay: Electrochemical sensor with acetylthiocholine reservoir in buffer containing acetylcholinesterase; inhibitor added, then sensor moved to fresh buffer
Assay type: biochemical
Conditions: 20 mM PBS, pH 7.4, 1 U/mL acetylcholinesterase, FIG. 13
Method: In this example, a buffer was created to simulate endogenous cholinesterase activity in the interstitial fluid of a test subject. A sensor similar to that described in Example 6 was created with 100 nL of 1 M acetylthiocholine in the reactant reservoir. The sensor was placed in a buffer solution of 20 mM PBS, pH 7.4, and 1 U/mL of acetylcholinesterase enzyme to simulate a test subject. A reversible acetylcholinesterase inhibitor (Neostigmine Bromide) was then added to the buffer solution to simulate an organophosphate. The sensor was then removed from the buffer solution containing the inhibitor and placed in fresh buffer solution.

acetylcholinesterase enzyme, sequence (P22303 32-614, species assumed): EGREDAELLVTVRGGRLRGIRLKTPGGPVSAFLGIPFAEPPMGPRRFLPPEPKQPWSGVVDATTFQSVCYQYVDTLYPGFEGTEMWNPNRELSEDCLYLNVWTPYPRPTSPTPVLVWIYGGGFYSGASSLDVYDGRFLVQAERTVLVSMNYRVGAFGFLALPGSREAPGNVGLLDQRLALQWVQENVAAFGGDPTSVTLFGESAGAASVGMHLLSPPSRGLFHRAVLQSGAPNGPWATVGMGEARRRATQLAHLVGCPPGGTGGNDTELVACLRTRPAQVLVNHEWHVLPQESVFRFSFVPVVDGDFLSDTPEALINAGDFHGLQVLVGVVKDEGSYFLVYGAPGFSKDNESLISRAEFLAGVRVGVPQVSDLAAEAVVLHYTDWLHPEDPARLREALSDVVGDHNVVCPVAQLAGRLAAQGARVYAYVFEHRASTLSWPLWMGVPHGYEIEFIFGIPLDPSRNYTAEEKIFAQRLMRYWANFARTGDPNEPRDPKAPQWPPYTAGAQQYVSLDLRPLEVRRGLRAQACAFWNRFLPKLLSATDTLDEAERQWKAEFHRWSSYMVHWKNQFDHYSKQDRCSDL

In the case of `CN(C)C(=O)Oc1cccc([N+](C)(C)C)c1` [Neostigmine Bromide], the “sensor signal created by acetylcholinesterase interacting with acetylthiocholine, after addition of the inhibitor” value (100 nL of 1 M acetylthiocholine in reservoir) is reported as “fell off after the addition of the inhibitor” and the “sensor signal after sensor removed from inhibitor solution and placed in fresh buffer (reversibility)” value (fresh buffer) is reported as “the signal rebounded”.
